{"source": "paper PMC5225183", "about": "“Fingerprinting of neurotoxic compounds using a mouse embryonic stem cell dual luminescence reporter assay” (Archives of Toxicology, 2016)", "key": {"[1]": {"design": "method as in Australian Therapeutic Goods Administration [2014]", "settings": "rats, toxic dose level 10 mg/kg/day; ref Australian Therapeutic Goods Administration [2014]; cited from earlier work"}, "[2]": {"assay": "PBPK reverse modeling of nominal equivalent concentration (NEC), human data", "protocol": "To evaluate the human relevance of in vitro concentrations found to be toxic in this study, an in vitro–in vivo comparison of the toxicity data was performed using a physiology-based pharmacokinetic (PBPK) reverse modeling approach. […] The lipid content and albumin concentrations of the test media N2 and BHK medium were calculated on the basis of the available information provided by the suppliers (Fig. S2A). The data on rat plasma have been adopted from (Verwei et al. [2006]). The original references are (Barber et al. [1990]) for albumin and (DeJongh et al. [1997]) for lipids. Human plasma values were taken from (Gulden and Seibert [2003]). The original data on albumin are from (Lindup [1987]) and for lipids from (Patterson et al. [1988]). Total protein concentrations were calculated based on the assumption that the protein molar mass is similar to the one of albumin (66 kDa). Albumin was assumed to represent 60 and 48 % of the total serum proteins (mg/ml) in human and rat (Baker et al. [1979]; Busher [1990]) (Fig. S2A).\n(a) Developmental toxicity (DT)—inducing concentrations were extrapolated from the in vivo study reported in the document by the Australian Therapeutic Goods Administration (Australian Therapeutic Goods Administration [2014]). In an embryo-fetal developmental toxicity study in rats, abiraterone acetate induced developmental toxicity when administered at oral doses of 10, 30 or 100 mg/kg/day throughout the period of organogenesis (gestational days 6–17). Findings include embryo-fetal lethality (increased postimplantation loss and decreased number of living fetuses), fetal developmental delay (skeletal effects), and urogenital effects (bilateral ureter dilation) at doses ≥10 mg/kg/day (Australian Therapeutic Goods Administration [2014]). (b) Toxicokinetic parameters of abiraterone in rats were extracted from the available report from the TGA (Australian Therapeutic Goods Administration [2014]). […] The average concentration (Cavg) was calculated from the ratio of AUC and the dose interval (τ) of 24 h. The percentage of plasma protein binding of the drug was reported as being 99.8 %, without relevant species differences occurring (US FDA [2011]). (c) The nominal in vitro concentrations equivalent to the concentration used in vivo were calculated using the value of total protein concentration instead of albumin concentration.\nClinical signs included malrotated forepaws/hindpaws, discoloration of the body surface, impaired coat growth, eye opacity, and eye discharge with absence of pupillary reflex were observed (US FDA [2012]). […] The Cavg was calculated as the ratio of AUC and the dose interval (τ) of 24 h. TF is reported to be extensively bound in plasma, probably mostly to albumin, with an average bound fraction of 99.46 % (Russo et al. [2013]). (c) The nominal in vitro concentrations equivalent to the concentration used in vivo in rats and humans (Cmax and Cavg) were determined assuming only binding to the specific drug-binding proteins (albumin and/or α1-acid glycoprotein) (Fig. S2D).\nTo compare the effective/toxic concentrations found in our study with relevant in vivo concentrations, we used a reverse pharmacokinetic modeling approach for three exemplary compounds: teriflunomide, geldanamycin, and abiraterone. Firstly, we used a literature data mining approach to identify toxic or clinically relevant plasma concentrations reported in published animal studies (in relation to developmental toxicity or neurotoxicity) or clinical measurements (mostly in relation to drug efficacy). Then those values were used as points-of-departure to calculate the nominal equivalent concentrations (NEC) in both cell culture media used in our study, the BHK and N2 medium. These two media (used to expose the ESCs and the ESC-derived neurons) contained different amounts of protein and lipid and therefore required separate calculations of the NEC. […]"}, "plasma protein": {"system": "plasma protein", "assay": "Plasma protein binding (plasma bound fraction)", "type": "in vitro ADME", "settings": "assumed, no specific indications found", "protocol": "The lipid content and albumin concentrations of the test media N2 and BHK medium were calculated on the basis of the available information provided by the suppliers (Fig. S2A). The data on rat plasma have been adopted from (Verwei et al. [2006]). The original references are (Barber et al. [1990]) for albumin and (DeJongh et al. [1997]) for lipids. Human plasma values were taken from (Gulden and Seibert [2003]). The original data on albumin are from (Lindup [1987]) and for lipids from (Patterson et al. [1988]). Total protein concentrations were calculated based on the assumption that the protein molar mass is similar to the one of albumin (66 kDa). […]\n(a) Developmental toxicity (DT)—inducing concentrations were extrapolated from the in vivo study reported in the document by the Australian Therapeutic Goods Administration (Australian Therapeutic Goods Administration [2014]). […] (c) The nominal in vitro concentrations equivalent to the concentration used in vivo were calculated using the value of total protein concentration instead of albumin concentration. […]\n(c) The nominal in vitro concentrations equivalent to the concentration used in vivo in rats and humans (Cmax and Cavg) were determined assuming only binding to the specific drug-binding proteins (albumin and/or α1-acid glycoprotein) (Fig. S2D)."}, "[3]": {"settings": "cited from earlier work"}, "mice": {"system": "mice", "design": "method as in https://www.spectrumchemical.com/MSDS/TCI-G0334.pdf", "settings": "ref https://www.spectrumchemical.com/MSDS/TCI-G0334.pdf; cited from earlier work"}, "[4]": {"design": "method as in Supko et al. [1995]", "settings": "mouse, i.v.; ref Supko et al. [1995]; cited from earlier work"}, "rats": {"system": "rats", "settings": "Sprague Dawley rats, GD 6 through LD 20; ref US FDA [2012]; cited from earlier work"}, "[5]": {"system": "neural crest cell migration", "design": "method as in Zimmer et al. [2012]", "settings": "ref Zimmer et al. [2012]; cited from earlier work"}, "[6]": {"system": "neuronal precursor cells derived from human embryonic stem cells", "design": "method as in Waldmann et al. [2014]", "settings": "ref Waldmann et al. [2014]; cited from earlier work"}, "[7]": {"system": "neuroepithelial precursor cell migration", "design": "method as in Zimmer et al. [2012]", "settings": "ref Zimmer et al. [2012]; cited from earlier work"}}, "data": [{"molecule": "C[C@]12CC[C@H](O)CC1=CC[C@@H]1[C@@H]2CC[C@]2(C)C(c3cccnc3)=CC[C@@H]12", "note": "[Abiraterone]", "values": [{"measurement": "AUC", "setting": "[1]", "result": 34, "unit": "ng·h/mL"}, {"measurement": "Cmax", "setting": "[1]", "result": 10.8, "unit": "ng/mL"}, {"measurement": "Free concentration in vivo", "setting": "[2]; Cavg", "result": 0.353, "unit": "pM"}, {"measurement": "Total concentration in vivo (ECpl)", "setting": "[2]; Cavg", "result": 0.14, "unit": "µM"}, {"measurement": "Free concentration in vivo", "setting": "[2]; Cmax", "result": 1.63, "unit": "pM"}, {"measurement": "Total concentration in vivo (ECpl)", "setting": "[2]; Cmax", "result": 0.647, "unit": "µM"}]}, {"molecule": "COC1=C2C[C@@H](C)C[C@H](OC)[C@H](O)[C@@H](C)/C=C(\\C)[C@H](OC(N)=O)[C@@H](OC)/C=C\\C=C(/C)C(=O)NC(=CC1=O)C2=O", "note": "[Geldanamycin]", "values": [{"measurement": "fb,pl (plasma bound fraction)", "setting": "plasma protein", "result": 99, "unit": "%"}, {"measurement": "aqueous solubility", "setting": "[3]", "result": "poor"}, {"measurement": "LD50", "setting": "mice", "result": 1, "unit": "mg/kg"}, {"measurement": "initial volume of distribution", "setting": "[4]", "result": 0.16, "unit": "L/kg"}]}, {"molecule": "C/C(O)=C(\\C#N)C(=O)Nc1ccc(C(F)(F)F)cc1", "note": "[Teriflunomide]", "values": [{"measurement": "oral dose leading to teratogenicity", "setting": "rats", "result": 0.3, "unit": "mg/kg/day"}, {"measurement": "Free concentration in vivo", "setting": "[2]; Cavg", "result": 280000, "unit": "pM"}, {"measurement": "Total concentration in vivo (ECpl)", "setting": "[2]; Cavg", "result": 165, "unit": "µM"}]}, {"molecule": "CCCC(CCC)C(=O)O", "note": "[Valproic acid]", "values": [{"measurement": "concentration inhibiting neural crest cell migration", "setting": "[5]", "result": "10 to 100", "unit": "µM"}, {"measurement": "range of tolerance", "setting": "[6]", "result": "up to 25 μM"}, {"measurement": "concentration not affecting neuroepithelial precursor cell migration", "setting": "[7]", "result": "> 1", "unit": "mM"}]}]}
